Measured values published in US10993935B2, “Compositions and methods for treatment of lung infections” (priority 2018, dated 2021).

Tests used:
[1] = test system: P. aeruginosa PAO581 (PAO1mucA25); assay: NIH drug library screen for inhibition of growth, mucoidy and PalgD-lacZ colour; format: cell-based, Pseudomonas aeruginosa
[2] = Solubility of RFX in nebulization solvents; format: physicochemical
Procedure: As treatment for traveler's diarrhea, RFX is a drug optimized for oral use. For RFX to be useful as a treatment for CF patients, it was determined whether RFX could be delivered to the lungs through nebulization. Nebulizing RFX was initially unsuccessful and more difficult than presumed. […] RFX was not soluble in water-based solutions, but was soluble in dimethyl-sulfoxide (DMSO) and ETOH (ethanol) in small volumes. […] However, 100% DMSO could be used to retain RFX in solution and deliver to the lungs as noted by HPLC data.

P. aeruginosa PAO1 = assay: Murine pneumonia model, single-dose treatment, survival; format: in vivo, DBA/2 mice; conditions: 12 mice per group
Procedure: Kaplan-Meier curves showing percent survival of DBA/2 mice with P. aeruginosa PAO1 infection after treatment with RFX or TOB at 0 h post-infection (FIG. 5A), 6 h post-infection (FIG. 5B), and 12 h post-infection (FIG. 5C). Data shown represent means of 12 mice per group. The Mantel-Cox test was used with significance set at a P value of <0.01 and showing standard error (SE) bars.
Murine Pneumonia Model Treatment. TOB or RFX were used to treat P. aeruginosa respiratory infection in a DBA/2 mouse model established previously. Lung infection was induced by a single exposure to a total of 84 male DBA/2 mice of 8 week old (Charles River Laboratories) to P. aeruginosa PAO1 aerosols, which was prepared as previously reported. Immediately after infection, the mice were separated into seven groups (n=12 per group): 1) control with no treatment, 2) treatment with 300 mg TOB immediately after infection, 3) treatment with 300 mg RFX immediately after infection, 4) treatment with 300 mg TOB 6 h after infection, 5) treatment with 300 mg RFX 6 h after infection, 6) treatment with 300 mg TOB 12 h after infection, or 7) treatment with 300 mg RFX 12 h after infection. Each experimental group was treated with TOB or RFX with a control group treated with PBS following the nebulization protocol as described above. The mice were monitored for survival at 12 hour intervals for 72 hours and then at 24 hour intervals for 6 weeks.
After establishing the dosing of TOB or RFX to efficiently reach the lungs, the efficacy of both drugs against P. aeruginosa lung infections was compared using an established mouse model. DBA/2 (n=84) male mice were first infected with aerosolized P. aeruginosa PAO1 in a whole-body exposure chamber as previously described. The mice were then separated into four groups. One group was left untreated to determine the rate of mortality (control). The remaining three groups were treated with RFX or TOB using a pressure-based nebulizer and whole-body exposure chamber at a concentration of 300 mg at 0 h, 6 h, or 12 h post infection. All control mice died within 5 days (FIGS. 5A-5C), consistent with what was previously reported. […] In the 12 h treatment group, 83% of mice treated with RFX survived, while only 50% of mice treated with TOB survived (FIG. 5C).

[3] = test system: P. aeruginosa PAO1 with bioluminescent operon (luxCDABE); assay: Murine pneumonia model, multiple-dose treatment, lung bacterial load; format: in vivo, DBA/2 mice; conditions: 300 mg doses at 6, 8 and 10 h post-infection (3× TOB, or RFX then 2× TOB); lungs at 12, 18, 24 h
Excerpt: FIG. 6 is a graph showing that the addition of RFX to multiple treatments of TOB results in a decrease of CFU per milliliter of P. aeruginosa in mouse lungs. Plot showing the CFU per milliliter counts of mice after being infected with P. aeruginosa and left untreated, treated with multiple doses of TOB, or treated with multiple doses of TOB with addition of RFX. Data shown represent average of 2 mice per time point per group. Two-way ANOVA was used to test for statistical significance with a P value of <0.01 (****, P<0.0001).
Female DBA/2 mice were infected at 0 hour and split into 3 experimental groups of 8: no treatment; treatment with 300 mg TOB at 6, 8, and 10 h post-infection; or treatment with 300 mg RFX at 6 h and 300 mg TOB at 8 and 10 h post-infection. Two mice from each group were sacrificed at 12, 18, and 24 h post-infection. Lungs from sacrificed mice were homogenized in 1% PPBS and tested for bacterial growth to determine CFU load per mouse. Bacteria grown were also imaged for evidence of bioluminescence. Two mice from each group were left to observe for survival.
Based on the efficacy seen with the single dose treatment a multiple dose study was used to replicate clinical treatment conditions seen with CF infections. The efficacy of TOB in multiple doses with or without RFX was determined using the established lung infection model. […]

[4] = 300 mg nebulized at 0 h after infection
[5] = 300 mg nebulized at 6 h post infection
[6] = 300 mg nebulized at 12 h post infection

Structure (SMILES) | Growth 2 μM ([1]; drug at 2 μM, PAO581 on PIA) | Mucoidy 2 μM ([1]; drug at 2 μM, PAO581 with pLP170-PalgD-lacZ on PIA + X-gal) | Color 2 μM ([1]; drug at 2 μM, X-gal colour of PalgD-lacZ reporter, 'Light' wraps to 'Light Blue') | Growth 10 μM ([1]; drug at 10 μM, PAO581 on PIA) | Growth 50 μM ([1]; drug at 50 μM, PAO581 on PIA) | solubility ([2]; in 20%, 40%, and 80% DMSO in PBS, came out of solution on nebulization) | solubility ([2]; in DMSO) | solubility ([2]; in PBS or saline) | solubility ([2]; in dimethyl-sulfoxide (DMSO) and ETOH (ethanol) in small volumes) | solubility ([2]; in water) | solubility ([2]; in water-based solutions) | survival (P. aeruginosa PAO1; [4]) [%] | survival (P. aeruginosa PAO1; [5]) [%] | survival (P. aeruginosa PAO1; [6]) [%] | bacterial growth in the lungs [3]
CO[C@H]1/C=C/O[C@@]2(C)Oc3c(C)c(O)c4c(O)c(c5c(nc6cc(C)ccn65)c4c3C2=O)NC(=O)/C(C)=C\C=C\[C@H](C)[C@H](O)[C@@H](C)[C@@H](O)[C@@H](C)[C@H](OC(C)=O)[C@@H]1C [RFX, rifaximin] | Reduced | Reduced | Clear | Inhibited | Inhibited | partially or fully dissolve | readily soluble | did not dissolve | soluble | only sparingly soluble | not soluble | 100 | 92 | 83 | –
NC[C@H]1O[C@H](O[C@H]2[C@H](O)[C@@H](O[C@H]3O[C@H](CO)[C@@H](O)[C@H](N)[C@H]3O)[C@H](N)C[C@@H]2N)[C@H](N)C[C@@H]1O [TOB, tobramycin] | – | – | – | – | – | – | – | – | – | – | – | 92 | 58 | 50 | around 10^8 CFUs
